Article PMC5218480 (PLoS ONE, 2017)

System: MV-4-11 cells
Assay: Gene expression microarray analysis (Affymetrix PrimeView) and GSEA
Format: cell-based, human
Parameters: RFU PODN (11730768_x_at) / Fold change /veh PODN (11730768_x_at) / RFU LINC00158 (11744669_a_at) / Fold change /veh LINC00158 (11744669_a_at) / RFU DUSP10 (11751237_a_at) / Fold change /veh DUSP10 (11751237_a_at) / RFU ID3 (11757404_x_at) / Fold change /veh ID3 (11757404_x_at) / RFU PLEKHG5 (11737974_s_at) / Fold change /veh PLEKHG5 (11737974_s_at) / RFU LRRC4B (11730491_at) / Fold change /veh LRRC4B (11730491_at) / RFU GIMAP4 (11747438_a_at) / Fold change /veh GIMAP4 (11747438_a_at) / RFU KRT8 (11758183_x_at) / Fold change /veh KRT8 (11758183_x_at) / RFU CNN1 (11734310_a_at) / Fold change /veh CNN1 (11734310_a_at) / RFU VPS37D (11726825_at) / Fold change /veh VPS37D (11726825_at) / RFU C10orf10 (11716522_x_at) / Fold change /veh C10orf10 (11716522_x_at) / RFU KIR2DL2 /// KIR2DL4 /// KIR2DL5A /// KIR2DL5B /// KIR2DS1 /// KIR2DS2 /// KIR2DS3 /// KIR2DS4 /// KIR3DL3 /// KIR3DL3 /// KIR3DS1 (11738374_at) / Fold change /veh KIR2DL2 /// KIR2DL4 /// KIR2DL5A /// KIR2DL5B /// KIR2DS1 /// KIR2DS2 /// KIR2DS3 /// KIR2DS4 /// KIR3DL3 /// KIR3DL3 /// KIR3DS1 (11738374_at) / RFU C1QL1 (11718748_at) / Fold change /veh C1QL1 (11718748_at) / RFU TMPRSS4 (11747572_a_at) / Fold change /veh TMPRSS4 (11747572_a_at) / RFU HAMP (11756126_x_at) / Fold change /veh HAMP (11756126_x_at) / RFU RNFT2 (11725882_a_at) / Fold change /veh RNFT2 (11725882_a_at) / RFU NR4A2 (11747474_a_at) / Fold change /veh NR4A2 (11747474_a_at) / RFU ABCC12 (11746883_a_at) / Fold change /veh ABCC12 (11746883_a_at) / RFU TMEM136 (11760407_x_at) / Fold change /veh TMEM136 (11760407_x_at) / RFU CLDN22 /// WWC2 (11732394_at) / Fold change /veh CLDN22 /// WWC2 (11732394_at) / RFU HLA-DPB1 (11760878_x_at) / Fold change /veh HLA-DPB1 (11760878_x_at) / RFU SPINT1 (11716480_a_at) / Fold change /veh SPINT1 (11716480_a_at) / RFU GAP43 (11754022_s_at) / Fold change /veh GAP43 (11754022_s_at) / RFU A4GNT (11735810_at) / Fold change /veh A4GNT (11735810_at) / RFU PRB3 (11715151_x_at) / Fold change /veh PRB3 (11715151_x_at) / RFU TUBB4B (11761932_at) / Fold change /veh TUBB4B (11761932_at) / RFU CAPN14 (11732068_a_at) / Fold change /veh CAPN14 (11732068_a_at) / RFU TMCC2 (11721928_a_at) / Fold change /veh TMCC2 (11721928_a_at) / RFU IRGQ (11745062_a_at) / Fold change /veh IRGQ (11745062_a_at) / RFU FAM174B (11720279_a_at) / Fold change /veh FAM174B (11720279_a_at) / RFU TMPRSS4 (11748680_a_at) / Fold change /veh TMPRSS4 (11748680_a_at) / RFU FAM212B (11763350_a_at) / Fold change /veh FAM212B (11763350_a_at) / RFU PLEKHG5 (11743358_a_at) / Fold change /veh PLEKHG5 (11743358_a_at) / RFU ZSCAN30 (11745921_a_at) / Fold change /veh ZSCAN30 (11745921_a_at) / RFU CMKLR1 (11741424_a_at) / Fold change /veh CMKLR1 (11741424_a_at) / RFU LOC101060620 /// MAPK8IP1 (11723275_at) / Fold change /veh LOC101060620 /// MAPK8IP1 (11723275_at) / RFU SPTSSB (11747773_x_at) / Fold change /veh SPTSSB (11747773_x_at) / RFU PRSS12 (11739890_at) / Fold change /veh PRSS12 (11739890_at) / RFU BIN1 (11741810_x_at) / Fold change /veh BIN1 (11741810_x_at) / RFU WNT11 (11732464_a_at) / Fold change /veh WNT11 (11732464_a_at) / RFU C10orf10 (11716521_a_at) / Fold change /veh C10orf10 (11716521_a_at) / RFU C5orf56 (11738089_at) / Fold change /veh C5orf56 (11738089_at) / RFU CYB561 (11721691_x_at) / Fold change /veh CYB561 (11721691_x_at) / RFU ANKRD19P (11752326_a_at) / Fold change /veh ANKRD19P (11752326_a_at) / RFU OR2T12 /// OR2T33 /// OR2T8 (11738714_s_at) / Fold change /veh OR2T12 /// OR2T33 /// OR2T8 (11738714_s_at) / RFU VCAN (11748164_a_at) / Fold change /veh VCAN (11748164_a_at) / RFU JSRP1 (11732532_at) / Fold change /veh JSRP1 (11732532_at) / RFU KRTAP10-11 (11738290_x_at) / Fold change /veh KRTAP10-11 (11738290_x_at) / RFU MYO3A (11730013_a_at) / Fold change /veh MYO3A (11730013_a_at) / RFU EBF3 (11725865_a_at) / Fold change /veh EBF3 (11725865_a_at) / RFU CAMK2N1 (11719241_x_at) / Fold change /veh CAMK2N1 (11719241_x_at) / RFU C5orf56 (11738088_a_at) / Fold change /veh C5orf56 (11738088_a_at) / RFU OLFML3 (11715873_a_at) / Fold change /veh OLFML3 (11715873_a_at) / RFU LOC100653217 /// NTM (11731650_a_at) / Fold change /veh LOC100653217 /// NTM (11731650_a_at) / RFU MAPK11 (11762145_a_at) / Fold change /veh MAPK11 (11762145_a_at) / RFU FIZ1 (11724087_x_at) / Fold change /veh FIZ1 (11724087_x_at) / RFU OASL (11726364_x_at) / Fold change /veh OASL (11726364_x_at) / RFU SOX15 (11748057_x_at) / Fold change /veh SOX15 (11748057_x_at) / RFU CD79A (11719716_a_at) / Fold change /veh CD79A (11719716_a_at) / RFU HIST1H1D (11736915_at) / Fold change /veh HIST1H1D (11736915_at) / RFU CASKIN2 (11723855_a_at) / Fold change /veh CASKIN2 (11723855_a_at) / RFU LOC730098 (11760151_x_at) / Fold change /veh LOC730098 (11760151_x_at) / RFU OR4N2 (11742367_at) / Fold change /veh OR4N2 (11742367_at) / RFU PRRT2 (11749266_a_at) / Fold change /veh PRRT2 (11749266_a_at) / RFU SNX32 (11753110_a_at) / Fold change /veh SNX32 (11753110_a_at) / RFU CDHR5 (11726645_a_at) / Fold change /veh CDHR5 (11726645_a_at) / RFU RCAN1 (11760418_a_at) / Fold change /veh RCAN1 (11760418_a_at) / RFU FAM167A (11723789_a_at) / Fold change /veh FAM167A (11723789_a_at) / RFU FAM26E (11764081_at) / Fold change /veh FAM26E (11764081_at) / RFU ISYNA1 (11749810_s_at) / Fold change /veh ISYNA1 (11749810_s_at) / RFU ACY1 (11761880_at) / Fold change /veh ACY1 (11761880_at) / RFU 11764098_at / Fold change /veh 11764098_at / RFU SAMD14 (11745864_x_at) / Fold change /veh SAMD14 (11745864_x_at) / RFU NPB (11741838_a_at) / Fold change /veh NPB (11741838_a_at) / RFU TMPRSS6 (11731388_a_at) / Fold change /veh TMPRSS6 (11731388_a_at) / RFU KRTAP10-2 (11738614_at) / Fold change /veh KRTAP10-2 (11738614_at) / RFU ARHGAP8 /// PRR5-ARHGAP8 (11727945_x_at) / Fold change /veh ARHGAP8 /// PRR5-ARHGAP8 (11727945_x_at) / RFU KRTAP5-7 /// NADSYN1 (11734609_at) / Fold change /veh KRTAP5-7 /// NADSYN1 (11734609_at) / RFU RASL12 (11751679_a_at) / Fold change /veh RASL12 (11751679_a_at) / RFU CDKN2B (11736163_a_at) / Fold change /veh CDKN2B (11736163_a_at) / RFU PRF1 (11729649_at) / Fold change /veh PRF1 (11729649_at) / RFU, ZNF638 /// ZNF638-IT1 / Fold change vs veh, ZNF638 /// ZNF638-IT1 / RFU, PANK3 / Fold change vs veh, PANK3 / RFU, SH3YL1 / Fold change vs veh, SH3YL1 / RFU, ZEB2 / Fold change vs veh, ZEB2 / RFU, NRIP1 / Fold change vs veh, NRIP1 / RFU, PTTG1IP / Fold change vs veh, PTTG1IP / RFU, CAPN2 / Fold change vs veh, CAPN2 / RFU, MED14 / Fold change vs veh, MED14 / RFU, SNORA58 / Fold change vs veh, SNORA58 / RFU, C1orf63 / Fold change vs veh, C1orf63 / RFU, LRRFIP1 / Fold change vs veh, LRRFIP1 / RFU, NDUFAF7 / Fold change vs veh, NDUFAF7 / RFU, SLC12A2 / Fold change vs veh, SLC12A2 / RFU, IBTK / Fold change vs veh, IBTK / RFU, ESF1 / Fold change vs veh, ESF1 / Fold change vs veh, TMEM50B / RFU, TAOK1 / Fold change vs veh, TAOK1 / RFU, ACBD3 / Fold change vs veh, ACBD3 / RFU, TMA16 / Fold change vs veh, TMA16 / RFU, RWDD3 / Fold change vs veh, RWDD3 / RFU, BCAT1 / Fold change vs veh, BCAT1 / RFU, EDEM3 / Fold change vs veh, EDEM3 / RFU, TMEM33 / Fold change vs veh, TMEM33 / RFU, WDR75 / Fold change vs veh, WDR75 / RFU, AHCTF1 / Fold change vs veh, AHCTF1 / RFU, TFRC / Fold change vs veh, TFRC / RFU, ZDHHC17 / Fold change vs veh, ZDHHC17 / RFU, NOM1 / Fold change vs veh, NOM1 / RFU, ARL8B / Fold change vs veh, ARL8B / RFU, ZBTB11 / Fold change vs veh, ZBTB11 / RFU, TAMM41 / Fold change vs veh, TAMM41 / RFU, KIAA1704 /// LOC100996395 / Fold change vs veh, KIAA1704 /// LOC100996395 / RFU, ING1 / Fold change vs veh, ING1 / RFU, TRMT61B / Fold change vs veh, TRMT61B / RFU, FUBP3 / Fold change vs veh, FUBP3 / RFU, TP53 / Fold change vs veh, TP53 / RFU, TNKS2 / Fold change vs veh, TNKS2 / RFU, ZFP14 / Fold change vs veh, ZFP14 / RFU, ACTR2 / Fold change vs veh, ACTR2 / RFU, PPP3R1 / Fold change vs veh, PPP3R1 / RFU, PIK3R1 / Fold change vs veh, PIK3R1 / RFU, HNRNPA1 / Fold change vs veh, HNRNPA1 / RFU, RNF170 / Fold change vs veh, RNF170 / RFU, ZNF28 / Fold change vs veh, ZNF28 / RFU, RNGTT / Fold change vs veh, RNGTT / RFU, OGT / Fold change vs veh, OGT / RFU, BRD1 / Fold change vs veh, BRD1 / RFU, MARS / Fold change vs veh, MARS / RFU, ZNF655 / Fold change vs veh, ZNF655 / RFU, FAHD1 / Fold change vs veh, FAHD1 / RFU, BDP1 / Fold change vs veh, BDP1 / RFU, LRRCC1 / Fold change vs veh, LRRCC1 / RFU, ARID1A / Fold change vs veh, ARID1A / RFU, ZNF146 / Fold change vs veh, ZNF146 / RFU, ZNF330 / Fold change vs veh, ZNF330 / RFU, GPN3 / Fold change vs veh, GPN3 / RFU, C9orf123 / Fold change vs veh, C9orf123 / RFU, N4BP2L2 / Fold change vs veh, N4BP2L2 / RFU, ARFIP1 / Fold change vs veh, ARFIP1 / RFU, FAM179B / Fold change vs veh, FAM179B / RFU, BCL10 / Fold change vs veh, BCL10 / RFU, UHRF1BP1L / Fold change vs veh, UHRF1BP1L / RFU, BET1 / Fold change vs veh, BET1 / RFU, CNOT2 / Fold change vs veh, CNOT2 / RFU, ZNF268 / Fold change vs veh, ZNF268 / Fold change vs veh, ZNF507 / RFU, DGCR2 / Fold change vs veh, DGCR2 / RFU, WDSUB1 / Fold change vs veh, WDSUB1 / Fold change vs veh, HSP90B1 /// MIR3652 / RFU, ADSS / Fold change vs veh, ADSS / RFU, GK / Fold change vs veh, GK / RFU, ZNF148 / Fold change vs veh, ZNF148 / RFU, TAF9 / Fold change vs veh, TAF9 / RFU, SLC1A5 / Fold change vs veh, SLC1A5 / RFU, SLMO2 / Fold change vs veh, SLMO2 / RFU, ABCC4 / Fold change vs veh, ABCC4 / RFU, LOC101060439 /// RAP1B / Fold change vs veh, LOC101060439 /// RAP1B / RFU, RFX7 / Fold change vs veh, RFX7 / RFU, GTPBP10 / Fold change vs veh, GTPBP10 / RFU, CNEP1R1 / Fold change vs veh, CNEP1R1 / RFU, BIVM-ERCC5 /// ERCC5 / Fold change vs veh, BIVM-ERCC5 /// ERCC5 / RFU, ILF3 / Fold change vs veh, ILF3 / RFU 11762660_at / Fold change /veh 11762660_at / RFU VCAN (11757783_s_at) / Fold change /veh VCAN (11757783_s_at) / RFU DDX43 (11728927_at) / Fold change /veh DDX43 (11728927_at) / RFU KRT8 (11758188_x_at) / Fold change /veh KRT8 (11758188_x_at) / RFU NKD1 (11759106_at) / Fold change /veh NKD1 (11759106_at) / RFU SRD5A1 (11742802_a_at) / Fold change /veh SRD5A1 (11742802_a_at) / RFU TPSAB1 /// TPSB2 (11721975_s_at) / Fold change /veh TPSAB1 /// TPSB2 (11721975_s_at) / RFU GSTM3 (11746129_a_at) / Fold change /veh GSTM3 (11746129_a_at) / RFU IL23R (11737362_x_at) / Fold change /veh IL23R (11737362_x_at) / RFU TMEM51 (11727254_a_at) / Fold change /veh TMEM51 (11727254_a_at) / RFU PIWIL2 (11732686_x_at) / Fold change /veh PIWIL2 (11732686_x_at) / RFU ORM1 (11744905_x_at) / Fold change /veh ORM1 (11744905_x_at) / RFU CCDC152 (11743942_at) / Fold change /veh CCDC152 (11743942_at) / RFU ECM1 (11717891_a_at) / Fold change /veh ECM1 (11717891_a_at) / RFU IL23R (11748794_a_at) / Fold change /veh IL23R (11748794_a_at) / RFU TNFAIP8L3 (11732012_x_at) / Fold change /veh TNFAIP8L3 (11732012_x_at) / RFU MBOAT4 (11741988_at) / Fold change /veh MBOAT4 (11741988_at) / RFU 11764193_at / Fold change /veh 11764193_at / RFU TMEM53 (11763286_at) / Fold change /veh TMEM53 (11763286_at) / RFU MAGEB2 (11727129_at) / Fold change /veh MAGEB2 (11727129_at) / RFU TMEM200A (11744735_a_at) / Fold change /veh TMEM200A (11744735_a_at) / RFU CCDC152 (11751479_a_at) / Fold change /veh CCDC152 (11751479_a_at) / RFU FAM211A (11726209_a_at) / Fold change /veh FAM211A (11726209_a_at) / RFU RGS16 (11746705_a_at) / Fold change /veh RGS16 (11746705_a_at) / RFU VCAN (11755009_s_at) / Fold change /veh VCAN (11755009_s_at) / RFU RHOB (11743442_s_at) / Fold change /veh RHOB (11743442_s_at) / RFU RGS16 (11720943_a_at) / Fold change /veh RGS16 (11720943_a_at) / RFU RGS16 (11720944_at) / Fold change /veh RGS16 (11720944_at) / RFU, VPS4B / Fold change vs veh, VPS4B / RFU, CREB1 / Fold change vs veh, CREB1 / RFU, DNAJC13 / Fold change vs veh, DNAJC13 / RFU, GNAQ / Fold change vs veh, GNAQ / RFU, CDK5R1 / Fold change vs veh, CDK5R1 / RFU, ZRANB3 / Fold change vs veh, ZRANB3 / RFU, CUL4A / Fold change vs veh, CUL4A / RFU, CCNY / Fold change vs veh, CCNY / RFU, UFL1 / Fold change vs veh, UFL1 / RFU, COG3 / Fold change vs veh, COG3 / RFU, DIAPH2 / Fold change vs veh, DIAPH2 / RFU, SKA2 / Fold change vs veh, SKA2 / RFU, AFF3 / Fold change vs veh, AFF3 / RFU, LMF1 / Fold change vs veh, LMF1 / RFU, IPO11 / Fold change vs veh, IPO11 / RFU, DFFB / Fold change vs veh, DFFB / RFU, FOXP1 / Fold change vs veh, FOXP1 / RFU, CARD8 / Fold change vs veh, CARD8 / RFU, STRN3 / Fold change vs veh, STRN3 / RFU, ADK / Fold change vs veh, ADK / RFU, RASSF2 / Fold change vs veh, RASSF2 / RFU, WIPF1 / Fold change vs veh, WIPF1 / RFU, LARP1B / Fold change vs veh, LARP1B / RFU, RASA1 / Fold change vs veh, RASA1 / RFU, RB1 / Fold change vs veh, RB1 / RFU, PPFIA1 / Fold change vs veh, PPFIA1 / RFU, MAT2A / Fold change vs veh, MAT2A / RFU, CCT5 / Fold change vs veh, CCT5 / RFU, WDR92 / Fold change vs veh, WDR92 / RFU, CUX1 / Fold change vs veh, CUX1 / RFU, TTC7A / Fold change vs veh, TTC7A / RFU, TMEM135 / Fold change vs veh, TMEM135 / RFU, DEPTOR / Fold change vs veh, DEPTOR / RFU, CPM / Fold change vs veh, CPM / RFU, DNAJB6 / Fold change vs veh, DNAJB6 / RFU, CACNA2D3 / Fold change vs veh, CACNA2D3 / RFU, DTX4 / Fold change vs veh, DTX4 / RFU, TFCP2 / Fold change vs veh, TFCP2 / RFU, GMCL1 /// GMCL1P1 / Fold change vs veh, GMCL1 /// GMCL1P1 / RFU, AEBP2 / Fold change vs veh, AEBP2 / RFU, SNHG1 /// SNORD22 /// SNORD25 /// SNORD26 /// SNORD27 /// SNORD28 /// SNORD29 /// SNORD31 / Fold change vs veh, SNHG1 /// SNORD22 /// SNORD25 /// SNORD26 /// SNORD27 /// SNORD28 /// SNORD29 /// SNORD31 / Fold change (Aza/veh), C12orf56 (ProbeSet 11735607_a_at) / Fold change (ACY-1035/veh), C12orf56 (ProbeSet 11735607_a_at) / Fold change (Aza/veh), FGFR1OP (ProbeSet 11751329_s_at) / Fold change (ACY-1035/veh), FGFR1OP (ProbeSet 11751329_s_at) / Fold change (Aza/veh), VPS36 (ProbeSet 11739960_a_at) / Fold change (ACY-1035/veh), VPS36 (ProbeSet 11739960_a_at) / RFU SYPL1 (11715823_x_at) / Fold change /veh SYPL1 (11715823_x_at) / RFU IGFBP7 (11715501_s_at) / Fold change /veh IGFBP7 (11715501_s_at) / RFU REEP3 (11722064_at) / Fold change /veh REEP3 (11722064_at) / RFU IGLL1 (11728026_x_at) / Fold change /veh IGLL1 (11728026_x_at): dose or concentration left out as unconfirmed
Settings: MV-4-11 cells, 48 hours

## Nc1ccc(-c2cccs2)cc1NC(=O)c1ccc2c(c1)cc(C1CC1)n2CCN1CCOCC1 [ACY-1035]
  Fold change /veh FAM26E (11764081_at): 0.88
